In patent US10780094B2, “Use of carbonic anhydrase inhibitors for treatment of neurological and psychiatric disorders” (New York University, priority 2016, dated 2020):

Tests used:
SH-SY5Y and D3 cells = experiment: Aβ-induced cell death pathways (caspase 3 and 9 activation, CytC release, apoptosis); format: cell-based, human
Protocol: SH-SY5Y and D3 cells were plated on 15 mm optical borosilicate poly-L-lysine-coated sterile glass covers (ThermoFisher, Waltham, Mass., US) at a 70% confluence. After 24 hours, cells were treated with the peptides, the drugs or the different combinations of both of them, rinsed in PBS 1×, and fixed with 4% paraformaldehyde for 20 minutes. After that, the coverslips were washed once for 5 minute with PBS 1×, room temperature and twice for 5 minutes with cold PBS 1×. Cells were then permeabilized and blocked for 1 h with BSA 20 mg/mL+Triton 0.3% on PBS and incubated with the anti-active caspase-3 antibody, on PBS containing BSA 5 mg/mL, for 2 h. Next, cells were washed three times for 5 min each with PBS 1× and incubated with the secondary antibody (Alexa Fluor 488 anti-mouse antibody), at a 1:200 dilution in PBS containing BSA 5 mg/mL for an additional hour in the dark. Cells were then washed three times in the dark with 1 mL of PBS 1× and mounted on cover slips (ThermoFisher, Waltham, Mass., US). After mounting, cells were imaged, using a Nikon Eclipse Ti inverted microscope with a 20× objective (Nikon, Chiyoda. Tokyo, Japan).
Cells were plated at a confluence of 10.000 cells per well in 96-wells microplate luminescence microtiter (ThermoFisher, Waltham, Mass., US). The day after, cells were treated with the peptides and/or drugs for the experimental times. After that, caspase-Glo 9 assay was performed, following the protocol provided from the manufacturer. Luminescence was measured using a FlexStation 3 Multi-Mode Microplate Reader (Molecular devices, Sunnyvalem Calif., US).
20.000 cells per well were plated on 24-wells plates. The day after, cells were treated with peptides and/or drugs, following the experimental conditions.

C57BL/6 mice = experiment: Intra-hippocampal Aβ40-Q22 injection, immunohistochemistry; format: in vivo, mouse
Protocol: Six months old C57BL/6 mice were anesthetized with a mixture of ketamine and xylazine (120 and 10 mg/Kg respectively) i.p. and fixed to a stereotaxic frame (David Kopf Instruments, Tujunga, CaliforniaKopf). The body temperature was maintained stable with the use of a heating pad (Harvard Apparatus, Holliston, Mass.) for the total time of the surgery. A volume of 1 μl of a 10 μM fresh solution of Aβ40-Q22—chosen for its propensity to form toxic oligomers, and not fibrils, in the first few hours after solubilization—(Fossati et al., 2010) in PBS, or the vehicle for control mice, was injected in the hippocampus (Coordinates: AP=−2.7, L=−3.0 and H=−4.0, according to the Atlas of Paxinos and Franklin) at a flow rate of 0.1 μl/min. The needle (Hamilton 701 RN 10 μl syringe, RN needle 30/2″/3S) was left in place for two minutes and then slowly withdrawn. In the cases in which MTZ treatment was administered, mice were injected intraperitoneally with a solution of MTZ (20 mg/kg) 1 h before the Aβ40-Q22 intrahippocampal injection. At the selected time after injections, the animals were sacrificed by trans-cardiac perfusion (medium flow pump, Fisher Scientific 13-876-2, 10 ml/min flow rate) with PBS for 2 minutes followed by 4% paraphormaldehyde for 5 minutes. Brains were then removed from the skull and postfixed in 4% paraphormaldehyde for 2 h at 4° C. […] Brains were then washed in PBS, assembled in a plastic mold with Tissue-Tek O.C.T. compound (Fisher Scientific), and frozen with a mixture of liquid nitrogen and isopenthanol. Serial cryostat sections of 8 μm thickness were collected on positively charged microscope slides (Fisher Scientific) and stored at −80° C. until further immunohistochemical analysis.
For immunohistochemical staining, slices were warmed to RT for 5′ prior to use, rinsed in PBS and blocked with Mouse on Mouse (MOM) blocking reagent (2 drops in 2.5 ml of PBS, Vector Laboratories, Burlingame, Calif.) for 20 minutes. Incubation with the rabbit monoclonal antibody against active caspase-3 (Cell Signaling Technology) was performed overnight at 4° C. in PBS containing 0.1% triton X-100 and 5 mg/ml BSA. The day after, the sections were washed three times with PBS and incubated in Alexa Fluor 488- or 633-conjugated anti-rabbit IgG (Life Technologies; 1:200 in PBST with 5 mg/ml BSA; 1 h at RT), followed by primary anti-Aβ 6E10 (1:200 in PBS+MOM for 2 hours at RT), and by secondary Alexa Fluor 568 anti-mouse IgG. Finally, the slices were washed and the DNA counterstained with TO-PRO (Life Technologies) 1:1000 for 10 min, or with NeuN green neuronal staining (1:100 in PBS for 1 hour, Millipore, Temecula, Calif.). For staining of active microglial cells, tissue sections were incubated with anti IBA1 goat antibody (Abcam, Cambridge, Mass.) 1:200 in PBS containing 0.1% Triton and 5 mg/ml BSA for 1 hour, followed by Alexa Fluor 488 anti-goat IgG (1 hour). After washing, slides were mounted with an aqueous mounting medium (Vector Laboratories). Images were acquired in a Zeiss LSM 510 confocal microscope using 40× or 100× oil lens and processed using Image J and Adobe Photoshop. Images were acquired maintaining constant exposure for all samples across single experiments. For quantifications, stained brain slices corresponding to the injection site area of 3 or more animals were quantified with Image J. The total area of NeuN, caspase 3, Aβ and IBA1 positive cells was quantified and compared between different treatments.

caspase 9 in glial cells = experiment: Caspase-Glo 9 activity after Aβ challenge; format: cell-based, human
Protocol: Caspase 9 and caspase 3/7 activation was measured by luminescent assays (Caspase-Glo 9 and caspase-Glo 3/7, Promega, Madison, Wis.), in cells treated with the Aβ peptides in DMEM without FBS. Briefly, 10,000 cells/well were plated in 96 wells plates and incubated for 24 hours with the freshly solubilized Aβ peptides. Caspase-Glo reagent was added to the cell cultures resulting in cell lysis, followed by caspase cleavage of the substrate and generation of a luminescent signal produced by the luciferase reaction. After 40 minutes incubation, the amount of caspase activity was evaluated in a plate-reading luminometer (Synergy HT Multi-Mode Microplate Reader, Biotek, Winooski, Vt.) as described in (Fossati et al., 2012b). To inhibit non-specific background activity, the proteasome inhibitor MG-132 was added to the Caspase-Glo reagent before the experiment as indicated by the manufacturer. In all cases results are expressed as fold-change compared to untreated control cells.

[1] = MTZ IP one hour before peptide injection

SMILES	caspase activation and CytC release induced by Aβ (SH-SY5Y and D3 cells; ATZ)	effective concentration lower than that of MTZ (SH-SY5Y and D3 cells; ATZ versus MTZ)	nuclear chromatin condensation indicative of apoptosis (SH-SY5Y and D3 cells; Aβ challenge, FIGS. 16A-16B)	activation of caspase-3 induced by Aβ in CA1 neurons (C57BL/6 mice; 20 mg/Kg MTZ IP 1 hour prior to Aβ40-Q22 injection, sacrificed 4 hours after)	Aβ staining in the injected hemisphere (C57BL/6 mice; Aβ in the presence or absence of MTZ, FIG. 9A)	active-caspase 3 staining in IBA1- and Aβ-positive microglia (C57BL/6 mice; MTZ IP before Aβ injection)	caspase activation in the vicinity of the injection site (C57BL/6 mice; [1])	loss of NeuN immunoreactivity in the vicinity of the injection site (C57BL/6 mice; [1])	brain entry after systemic administration (C57BL/6 mice; inferred from efficacy after IP dosing)	caspase 9 over-activation (caspase 9 in glial cells; 100 or 300 μM MTZ, 10 μM Aβ42, 24 hours)	caspase 9 activity, drug alone (caspase 9 in glial cells; MTZ alone in absence of Aβ)
CC(=O)Nc1nnc(S(N)(=O)=O)s1 [ATZ, acetazolamide]	completely reverting	10 times	prevented								
CC(=O)/N=c1/sc(S(N)(=O)=O)nn1C [MTZ, methazolamide]				prevented	similarly increased	notably lower	significantly reduced	significantly reduced	can enter the mouse brain	significantly reduced	did not have any effect
